Results on five compounds are retold here after ChEMBL document CHEMBL1122382, “An evaluation of certain chain-extended analogues of 9-beta-D-arabinofuranosyladenine for antiviral and cardiovascular activity” (1983).

The structures appear in SMILES notation.

Test [1] deals with Canis familiaris. Kind of test: Compound was evaluated for the cardiovascular activity, expressed as maximum percent response achieved with standard (administered intravenously at a dose of 0.10 mg/kg) at a dose of 1.0 mg/kg of compound. The format is functional, Canis lupus familiaris, Heart.
The subject of test [2] is Human alphaherpesvirus 1. The experiment in a line: Virus rating (VR) which is the weighted measurement of in vitro antiviral activity, based on the inhibition of virus-induced cytopathogenic effects. VR > 1, active. The format is functional. (Damage to the host cells serves as the signal in cytopathic effect assays.)
In test [3] the test system is Human alphaherpesvirus 1. The experiment in a line: Antiviral activity against herpes simplex virus type 1 (strain 377). The format is functional. To be noted: read-out: ID50 (the source's name).
Test [4] deals with Human alphaherpesvirus 1. The experiment in a line: Compound was evaluated for virus rating (VR) which is the weighted measurement of in vitro antiviral activity, based on the inhibition of HSV-1 virus-induced cytopathogenic effects. VR = 0.5-0.9 indicates marginal activity. The format is functional.
Test [5] has as its system Human alphaherpesvirus 1. The experiment in a line: Antiviral activity against herpes simplex virus type 1 (strain HF). To be noted: read-out: ID50 (the source's name). The format is functional.
Test [6] is described as follows: Compound was evaluated for antiviral activity of the compound, expressed as ID50 for the inhibition of cellular DNA and protein synthesis in wild-type cells. The format is functional. To be noted: read-out: ID50 (the source's name).
Test [7] can be described thus: Compound was evaluated for in vitro therapeutic index ratio of the ID50 for inhibition of cellular DNA and protein synthesis to the ID50 for inhibition of virus replication. The format is functional.
The subject of test [8] is Human alphaherpesvirus 1. Kind of test: Virus rating (VR) which is the weighted measurement of in vitro antiviral activity, based on the inhibition of HSV-1 virus-induced cytopathogenic effects. VR > 1, active. The format is functional.
Test [9] deals with Ara-A. Kind of test: Compound was evaluated for antiviral activity of the compound, expressed as ID50 for the inhibition of cellular DNA and protein synthesis in ara-A resistant cells. The format is functional. To be noted: Homo sapiens; read-out: ID50 (the source's name).
In test [10] the test system is Canis familiaris. Kind of test: Compound was evaluated for the cardiovascular activity, expressed as maximum % response achieved with standard (administered intravenously at a dose of 0.10 mg/kg) at a dose of 1.0 mg/kg of the compound. The format is functional, Canis lupus familiaris, Heart.
Test [11] deals with Human alphaherpesvirus 1. Kind of test: Compound was evaluated for virus rating (VR) which is the weighted measurement of in vitro antiviral activity, based on the inhibition of HSV-1 virus-induced cytopathogenic effects. VR > 1, active. The format is functional.
The nature of test [12]: Compound was evaluated for antiviral activity expressed as ID50 for the inhibition of cellular DNA and protein synthesis in wild-type cells. The format is functional. To be noted: read-out: ID50 (the source's name).
Test [13] concerns Ara-A. The experiment in a line: Compound was evaluated for antiviral activity expressed as ID50 for the inhibition of cellular DNA and protein synthesis in ara-A resistant cells. The format is functional. To be noted: Homo sapiens; read-out: ID50 (the source's name).

Compound `NC(=O)CC[C@H]1OC(n2cnc3c(N)ncnc32)[C@@H](O)[C@@H]1O` (some centres undefined) returned a Response in the test on Canis familiaris [1] of 10%. Also, the VR in the test on Human alphaherpesvirus 1 [2] was determined as 1.6. The IC50 in the test with Human alphaherpesvirus 1 [3] is 574 µM.
For `Nc1ncnc2c1ncn2C1O[C@H](CCC(=O)O)[C@@H](O)[C@@H]1O` (some centres undefined), the VR in the test with Human alphaherpesvirus 1 [4] came out at 0.3.
Turning to `Nc1ncnc2c1ncn2C1O[C@H](CCCO)[C@@H](O)[C@@H]1O` (some centres undefined), the IC50 with Human alphaherpesvirus 1 [5] was 525 µM; in test [6] it was 1880 µM; in the test on Human alphaherpesvirus 1 [3], 643 µM; in the test with Ara-A [9] it was 1510 µM. The Ratio in test [7] is 2.1. In the test with Human alphaherpesvirus 1 [8], this compound came in with a VR of 1.5.
The compound `CCOC(=O)CC[C@H]1OC(n2cnc3c(N)ncnc32)[C@@H](O)[C@@H]1O` (some centres undefined) had a Response with Canis familiaris [10] of 39%. Besides, the IC50 with Human alphaherpesvirus 1 [3] came out at 729 µM. Moreover, the VR in the test on Human alphaherpesvirus 1 [11] was determined as 1.
On to `Nc1ncnc2c1ncn2[C@@H]1O[C@H](CO)[C@@H](O)[C@H]1O` [ADENOSINE], for which the IC50 in the test on Human alphaherpesvirus 1 [5] was 42 µM; in test [12] it was 2.4 µM; in the test on Ara-A [13] it was 242 µM; with Human alphaherpesvirus 1 [3], 22 µM. Moreover, in [7], the Ratio was found to be 3.1. In addition, the VR in the test on Human alphaherpesvirus 1 [2] is 2.5.
